# Experimental data reported in the NIST ThermoML archive (doi:10.1016/j.jct.2010.08.021).
# ± gives the expanded uncertainty stated by the source.
# Assay: mn = molality of the nth substance listed, in mol/kg
# Conditions: 283.15 K; 101 kPa; Liquid; Vibrating tube method; m2 = 0
row,Compound,mass density [kg/m3]
1,O [water] + N[C@@H](CO)C(=O)O,999.699 ± 0.12
2,O [water] + NCC(=O)O,999.699 ± 0.11
3,O [water] + N.N.O=C(O)CC(O)(CC(=O)O)C(=O)O,999.699 ± 0.15
